The source of these data is article PMC6394990, “Detailed characterization of the solution kinetics and thermodynamics of biotin, biocytin and HABA binding to avidin and streptavidin” (PLoS ONE, 2019).

The structures appear in SMILES notation. Like-named read-outs stand apart in the source and are kept apart here.

The target of assay [1] is T1, avidin (AV) (Gallus gallus, UniProt P02701).
T1 construct: purchased Calbiochem (La Jolla, CA)
Nature of the assay: Relaxation kinetics of unlabeled biotin reacting with the AV-HABA complex. It counts as binding. The note with it: pH 8. Here is the method:
(§1) All of the following protein concentrations are presented on a binding site basis, thus in the case of the HABA association reactions for AV were measured at 23.0 ± 0.1°C with a concentration of 87 μM HABA and 7.7 μM AV. The AV-HABA relaxation reactions were conducted with a preformed AV-HABA complex made up of 200 μM HABA and 10 μM AV, flowed against varying amounts of B7 from 100 μM up to 4000 μM for a [HABA]/[B7] ratio that ranged from 0.05 to 2.
The relaxation experiments were prepared at concentrations in which HABA occupies all sites (AV-HABA4). Biotin replaces HABA relative to the koff of the dye as shown for the first step (Eq 1) and then repeated for all sites. Having greater affinity, B7 occupies all sites at the end of the reaction and the measured kon is related to the affinities of the ligand bound protein.
The reaction is monitored by the HABA absorbance changes at 500 nm as it is replaced by unlabeled B7; yielding the relaxation constant of the reaction (Relaxation, Eq 2) which contains information of the B7 association rate constant of the open binding site, k1AV−HABA3 to form a full saturated complex (AV-HABA4) and the dissociation rate of that full complex, k−1AV−HABA4 , to yield a complex with three HABA molecules (AV-HABA3). In the subsequent steps, B7 replaces HABA as the ligand but the release of HABA creates an unoccupied site that remains in the same state. In summary, the experiment was designed to acquire the pseudo-first order association rate constant of B7 binding ( konB ) to the solely free binding site in a complex occupied by three HABA molecules (AV-HABA3).
The reciprocal of the relaxation constant (1/Relaxation) is plotted vs. the [HABA]/[B] concentration ratio (Eq 3) allowing to calculate: k−1AV−HABA4 and k1AV−HABA3 by solving for the intercept ( 1/k−1AV−HABA4 ) and the respective slope: m=k1AV−HABA3/(k−1AV−HABA4∙konB) . The exponential decays were analyzed by the method of Foss. There was no departure from simple first order decay in the relaxation, justifying the use of the following model and equations.

Assay [2] addresses T1, avidin (AV). Description: HABA association reaction for AV (stopped-flow absorbance at 500 nm). Format: binding. As to conditions: 23°C. Here is the method:
as §1
These calculations have been described elsewhere and were acquired for the AB1 complexes. The HABA association reaction for AV was carried out under pseudo-first order conditions on a micro absorbance SF instrument equipped with a xenon arc lamp (described above) and a monochromator (model 82–410, Jarrel-Ash, Waltham, Mass.) set at 500 nm.

The target of assay [3] is T1, avidin (AV). As to conditions: pH 8; read-out: KD AV-HABA; cited from earlier work.

T1 sequence (P02701 25-152): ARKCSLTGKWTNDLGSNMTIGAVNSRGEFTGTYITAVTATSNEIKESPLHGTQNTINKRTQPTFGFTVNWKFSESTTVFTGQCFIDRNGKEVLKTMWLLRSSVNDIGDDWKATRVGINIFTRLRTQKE

As to `O=C(O)c1ccccc1N=Nc1ccc(O)cc1` [HABA, 2-(4’-hydroxyazobenzene)-benzoic acid], the Kd in assay [1] (from k−1 and k1) was 12.2 µM; in assay [3], 12 µM. Moreover, the “k−1 AV−HABA4, HABA dissociation rate constant of the AV-HABA4 complex” value in assay [1] (23°C) was 6.23 ± 0.11 s⁻¹. Further, in assay [2], the “k1 AV−HABA3, HABA association rate for the final site” value is on record as 5.1 ± 0.1 × 10^5 M^-1s^-1.

One may read the Kd as the free concentration of one partner at which half of the binding sites on the other are occupied at equilibrium, for simple one-to-one binding.
